{
  "source": "patent US20200352912A1",
  "about": "“ANTIMICROBIAL COMPOSITIONS AND METHODS OF USING THE SAME” (The Board Of Supervisors Of Louisiana State University And …, priority 2018, published 2020)",
  "key": {"EP1": {"biological_target": "EP1 (Homo sapiens, UniProt P34995)", "sequence (P34995 whole entry)": "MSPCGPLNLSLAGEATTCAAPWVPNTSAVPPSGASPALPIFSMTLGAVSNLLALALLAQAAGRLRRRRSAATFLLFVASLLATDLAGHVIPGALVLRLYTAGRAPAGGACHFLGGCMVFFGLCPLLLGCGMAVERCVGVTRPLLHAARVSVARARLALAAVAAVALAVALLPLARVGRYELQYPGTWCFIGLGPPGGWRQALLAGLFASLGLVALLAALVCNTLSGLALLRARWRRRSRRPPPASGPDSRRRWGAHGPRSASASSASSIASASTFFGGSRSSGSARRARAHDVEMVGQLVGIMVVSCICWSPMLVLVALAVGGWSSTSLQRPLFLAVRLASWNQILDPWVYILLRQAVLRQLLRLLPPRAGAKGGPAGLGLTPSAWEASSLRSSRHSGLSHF", "conditions": "cited from earlier work"}, "S. aureus strain NRS383": {"test_system": "S. aureus strain NRS383", "assay": "effect of exogenous thymidine on antibacterial activity", "type": "cell-based, Staphylococcus aureus", "conditions": "50 μg/ml, 200 μg/ml thymidine", "description": "S. aureus strain NRS383 was grown in cation-adjusted Mueller-Hinton II broth alone (control), with 50 μg/ml of L-161, 982 or with 40 μg/ml of SXT (positive control)±200 μg/ml of thymidine. Cultures were incubated at 37° C. non-shaking and aliquots were removed at various time points and cultured for growth (CFU). Results are expressed as % of control at each time point. Mean values from two independent experiments are shown.\nEffect of exogenous thymidine on antibacterial activity of L-161, 982. S. aureus was cultured to mid-log phase in cation-adjusted Mueller-Hinton II broth with shaking at 37° C. Cultures were further diluted to yield a final concentration of 5×10^5 cells/ml. and treated with drugs alone or in combination with 200 μg/ml of thymidine (Sigma). Drugs were L-161, 982 (50 μg/ml) or 40 μg/ml of trimethoprim-sulfamethoxazole (SXT) at a ratio of 1:19 (2 μg/ml of trimethoprim and 38 μg/ml of sulfamethoxazole; Sigma) as a positive control. Cultures were incubated at 37° C. without shaking and aliquots were removed at t(0), 2, 4, 6, and 24 hours. CFUs were enumerated by plating various dilutions on TSA plates and incubating at 37° C. for 24 hours. Results were normalized to negative control cultures containing no drug at each time point."}, "[1]": {"assay": "administration of L-161,982 alone to control animals", "type": "in vivo, mice", "text": "Furthermore, L-161, 982 protected mice against the synergistic lethality induced by co-infection with C. albicans and S. aureus. […] The goal of these studies was to further investigate the antimicrobial mechanism of action (MOA) of L-161, 982, testing mechanisms associated with major classes of antimicrobials."}, "EP2": {"biological_target": "EP2 (Homo sapiens, UniProt P43116)", "sequence (P43116 whole entry)": "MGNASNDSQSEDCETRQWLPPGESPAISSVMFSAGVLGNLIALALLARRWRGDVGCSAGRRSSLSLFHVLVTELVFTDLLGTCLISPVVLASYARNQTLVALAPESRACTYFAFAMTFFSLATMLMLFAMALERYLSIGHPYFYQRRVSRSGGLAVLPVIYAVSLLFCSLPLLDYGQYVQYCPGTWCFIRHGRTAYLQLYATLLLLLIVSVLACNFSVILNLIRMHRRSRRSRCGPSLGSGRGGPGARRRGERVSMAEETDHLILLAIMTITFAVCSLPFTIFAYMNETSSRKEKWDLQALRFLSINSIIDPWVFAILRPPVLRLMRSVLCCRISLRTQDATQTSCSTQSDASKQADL", "conditions": "cited from earlier work"}},
  "note": "Entries after “also recorded” stand apart in the source; their conditions may differ.",
  "data": [
    {"smiles": "CCCCc1nn(-c2ccccc2C(F)(F)F)c(=O)n1Cc1ccc(-c2ccccc2S(=O)(=O)NC(=O)c2sccc2C)cc1", "note": "[L-161, 982, N-[[4′-[[3-Butyl-1,5-dihydro-5-oxo-1-[2-(trifluoromethyl)phenyl]-4H-1,2,4-triazol-4-yl]methyl][1,1′-biphenyl]-2-yl]sulfonyl]-3-methyl-2-thiophenecarboxamide]", "values": [
      {"measurement": "Ki", "setting": "EP1", "result": 17, "unit": "µM"},
      {"measurement": "effect of exogenous thymidine on growth inhibition", "setting": "S. aureus strain NRS383", "result": "did not reverse; also recorded: no effect"},
      {"measurement": "morbidity or mortality in control animals", "setting": "[1]", "result": "no morbidity or mortality"},
      {"measurement": "overt signs of toxicity", "setting": "[1]", "result": "did not cause any overt signs of toxicity"},
      {"measurement": "Ki", "setting": "EP2", "result": 23, "unit": "µM"}
    ]}
  ]
}
